In patent US9957274B2, “Indane inhibitors of EED and methods of their use” (AbbVie Inc., priority 2016, dated 2018):
Like-named read-outs stand apart in the source and are kept apart here.

How the values were obtained:
EED = EED (Homo sapiens, UniProt O75530); experiment: EED TR-FRET Binding Assay (modified LanthaScreen competition assay)
How it was run: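 Competition binding in a modified LanthaScreen format, in 20 mM Tris-HCl pH 7.5, 200 mM NaCl, 0.01% Tween-20, 10 uM DTT and 0.05% BSA. Reactions ran 1 hour at 25° C before TR-FRET detection.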

Pfeiffer cells = experiment: CTG cell viability assay (CellTiter-Glo); type: cell-based; conditions: Homo sapiens, 240 h
Method: 1,000 cells were plated into each well of 96-well Corning CellBing cell culture plates and incubated overnight at 37° C. in a humidified CO2 incubator. […] The cell culture plates were then incubated for 10 more days. CTG cell viability assay was performed on the cell culture samples by using CellTiter-Glo® Luminescent Cell Viability Assay Kit (Promega).

[1] = system: H3K27me3 in OCILY19 cells; experiment: H3K27me3 AlphaLISA assay in OCILY19 cells; type: cell-based; conditions: Homo sapiens, OCI-LY19, 144 h, 6 days with compound, read-out: OCILY-19 IC50
Method: 5,000 cells were plated into each well of 96-well Corning CellBing cell culture plates and incubated overnight at 37° C. in a humidified CO2 incubator. […] The cell culture plates were then incubated for 6 more days. H3K27me3 AlphaLISA assay was performed on the cell culture samples by using AlphaLISAR® H3K27me3 Cellular Detection Kit (PerkinElmer) and 96-well white half-area plates (PerkinElmer).

[2] = Pfeiffer cells, 10 days with compound, CellTiter-Glo, read-out: Cell Proliferation IC50

Sequence of EED (O75530 whole entry): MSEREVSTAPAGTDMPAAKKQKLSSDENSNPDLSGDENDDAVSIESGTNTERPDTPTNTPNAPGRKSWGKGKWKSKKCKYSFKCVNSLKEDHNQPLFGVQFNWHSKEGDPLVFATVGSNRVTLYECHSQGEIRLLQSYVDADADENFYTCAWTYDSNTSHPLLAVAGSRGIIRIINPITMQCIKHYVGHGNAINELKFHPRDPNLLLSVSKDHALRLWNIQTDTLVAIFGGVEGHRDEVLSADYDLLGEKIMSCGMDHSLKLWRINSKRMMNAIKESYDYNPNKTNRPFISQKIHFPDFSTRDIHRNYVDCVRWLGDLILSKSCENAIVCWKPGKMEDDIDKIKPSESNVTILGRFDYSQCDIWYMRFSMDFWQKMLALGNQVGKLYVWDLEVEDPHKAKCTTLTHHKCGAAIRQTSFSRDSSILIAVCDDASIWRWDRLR

SMILES | IC50 (EED) | IC50 (Pfeiffer cells; [2]) | IC50 [1] | IC50 (Pfeiffer cells; Pfeiffer, read-out: Cell Proliferation IC50 (uM))
CN(C)[C@H]1CN(C2CCc3cccc(F)c32)C[C@@H]1C1CCN(c2cnc(C(N)=O)cn2)CC1 (mixture of isomers) [Example 163, rac-5-{4-[(3S,4R)-4-(dimethylamino)-1-(7-fluoro-2,3-dihydro-1H-inden-1-yl)pyrrolidin-3-yl]piperidin-1-yl}pyrazine-2-carboxamide] | 0.000638 µM | 0.271 µM | 0.583 µM | 
CN(C)[C@H]1CN(C2CCc3cccc(F)c32)C[C@@H]1c1ccc(S(N)(=O)=O)cc1 (mixture of isomers) [Example 8, rac-4-[(3S,4R)-4-(dimethylamino)-1-(7-fluoro-2,3-dihydro-1H-inden-1-yl)pyrrolidin-3-yl]benzene-1-sulfonamide] | 0.0107 µM | 1.32 µM | 0.637 µM | 
Cc1cc([C@H]2CN(C3CCc4cccc(F)c43)C[C@@H]2N(C)C)ccc1N1CCN(C)C(=O)C1 (mixture of isomers) [Example 58, rac-4-{4-[(3S,4R)-4-(dimethylamino)-1-(7-fluoro-2,3-dihydro-1H-inden-1-yl)pyrrolidin-3-yl]-2-methylphenyl}-1-methylpiperazin-2-one] | 0.00167 µM | 0.314 µM | 0.376 µM | 
CN(C)[C@H]1CN(C2CCc3cccc(F)c32)C[C@@H]1c1cn(C)c2c(C(=O)N3CCN(S(C)(=O)=O)CC3)cccc12 (mixture of isomers) [Example 126, rac-{3-[(3S,4R)-4-(dimethylamino)-1-(7-fluoro-2,3-dihydro-1H-inden-1-yl)pyrrolidin-3-yl]-1-methyl-1H-indol-7-yl}[4-(methanesulfonyl)piperazin-1-yl]methanone] | 0.00214 µM | 0.329 µM | 0.22 µM | 
CN(C)[C@@H]1CN(C2CCc3cccc(F)c32)C[C@H]1c1ccc(N2CCN(C(=O)C(N)=O)CC2)cc1 (mixture of isomers) [Example 54, rac-2-(4-{4-[(3R,4S)-4-(dimethylamino)-1-(7-fluoro-2,3-dihydro-1H-inden-1-yl)pyrrolidin-3-yl]phenyl}piperazin-1-yl)-2-oxoacetamide] | 0.00106 µM | 0.114 µM | 0.0991 µM | 
CN1CCN(c2ccc([C@H]3CN(C4CCc5cccc(F)c54)C[C@@H]3N(C)C)cc2)CC1=O (mixture of isomers) [Example 56, rac-4-{4-[(3S,4R)-4-(dimethylamino)-1-(7-fluoro-2,3-dihydro-1H-inden-1-yl)pyrrolidin-3-yl]phenyl}-1-methylpiperazin-2-one] | 0.00139 µM | 0.145 µM | 0.556 µM | 
CN(C)[C@H]1CN(C2CCc3cccc(F)c32)C[C@@H]1c1ccc(N2CCN(C3CC3)CC2)cc1 (mixture of isomers) [Example 64, rac-(3R,4S)-4-[4-(4-cyclopropylpiperazin-1-yl)phenyl]-1-(7-fluoro-2,3-dihydro-1H-inden-1-yl)-N,N-dimethylpyrrolidin-3-amine] | 0.000835 µM | 0.166 µM | 0.334 µM | 
CN(C)C(=O)C(=O)N1CCN(c2ccc([C@@H]3CN(C4CCc5cccc(F)c54)C[C@H]3N(C)C)cc2)CC1 (mixture of isomers) [Example 59, rac-2-(4-{4-[(3R,4S)-4-(dimethylamino)-1-(7-fluoro-2,3-dihydro-1H-inden-1-yl)pyrrolidin-3-yl]phenyl}piperazin-1-yl)-N,N-dimethyl-2-oxoacetamide] | 0.00107 µM | 0.127 µM | 0.163 µM | 
CN(C)C(=O)c1cccc2c([C@H]3CN(C4CCc5cccc(F)c54)C[C@@H]3N(C)C)cn(C)c12 (mixture of isomers) [Example 101, rac-3-[(3S,4R)-4-(dimethylamino)-1-(7-fluoro-2,3-dihydro-1H-inden-1-yl)pyrrolidin-3-yl]-N,N,1-trimethyl-1H-indole-7-carboxamide] | 0.00174 µM |  | 0.368 µM | 
Cc1cc([C@H]2CN(C3CCc4cccc(F)c43)C[C@@H]2N(C)C)ccc1C#N (mixture of isomers) [Example 37, rac-4-[(3S,4R)-4-(dimethylamino)-1-(7-fluoro-2,3-dihydro-1H-inden-1-yl)pyrrolidin-3-yl]-2-methylbenzonitrile] | 0.00267 µM | 2.66 µM | 0.874 µM | 
CCS(=O)(=O)N1CCN(c2ccc([C@H]3CN(C4CCc5cccc(F)c54)C[C@@H]3N(C)C)cc2C)CC1 (mixture of isomers) [Example 62, rac-(3R,4S)-4-{4-[4-(ethanesulfonyl)piperazin-1-yl]-3-methylphenyl}-1-(7-fluoro-2,3-dihydro-1H-inden-1-yl)-N,N-dimethylpyrrolidin-3-amine] | 0.00135 µM | 0.429 µM | 0.282 µM | 
CC(=O)N1CCN(c2ccc([C@H]3CN(C4CCc5cccc(F)c54)C[C@@H]3N(C)C)cc2C)CC1 (mixture of isomers) [Example 60, rac-1-(4-{4-[(3S,4R)-4-(dimethylamino)-1-(7-fluoro-2,3-dihydro-1H-inden-1-yl)pyrrolidin-3-yl]-2-methylphenyl}piperazin-1-yl)ethan-1-one] | 0.00662 µM | 0.302 µM |  | 
CN(CCO)C(=O)c1cccc2c([C@H]3CN(C4CCc5cccc(F)c54)C[C@@H]3N(C)C)cn(C)c12 (mixture of isomers) [Example 98, rac-3-[(3S,4R)-4-(dimethylamino)-1-(7-fluoro-2,3-dihydro-1H-inden-1-yl)pyrrolidin-3-yl]-N-(2-hydroxyethyl)-N,1-dimethyl-1H-indole-7-carboxamide] | 0.00137 µM | 0.126 µM |  | 
CN(C)C(=O)c1ccc([C@H]2CN(C3CCc4cccc(F)c43)C[C@@H]2N(C)C)cc1 (mixture of isomers) [Example 26, rac-4-[(3S,4R)-4-(dimethylamino)-1-(7-fluoro-2,3-dihydro-1H-inden-1-yl)pyrrolidin-3-yl]-N,N-dimethylbenzamide] | 0.00251 µM | 3.03 µM | 1.36 µM | 
Cc1nnc(-c2ccc([C@@H]3CN(C4CCc5cccc(F)c54)C[C@H]3N(C)C)cc2)o1 (mixture of isomers) [Example 68, rac-(3S,4R)-1-(7-fluoro-2,3-dihydro-1H-inden-1-yl)-N,N-dimethyl-4-[4-(5-methyl-1,3,4-oxadiazol-2-yl)phenyl]pyrrolidin-3-amine] | 0.00237 µM | 0.491 µM |  | 
CN(C)C1CN(C2CCc3cccc(F)c32)CC1c1cn(C)c2cc(C(=O)N3CCC(O)C3)ccc12 (racemic) [Example 111, rac-{3-[(3S,4R)-4-(dimethylamino)-1-(7-fluoro-2,3-dihydro-1H-inden-1-yl)pyrrolidin-3-yl]-1-methyl-1H-indol-6-yl}[(35)-3-hydroxypyrrolidin-1-yl]methanone] | 0.00259 µM | 0.171 µM |  | 
CNC(=O)c1cccc2c([C@H]3CN(C4CCc5cccc(F)c54)C[C@@H]3N(C)C)cn(C)c12 (mixture of isomers) [Example 99, rac-3-[(3S,4R)-4-(dimethylamino)-1-(7-fluoro-2,3-dihydro-1H-inden-1-yl)pyrrolidin-3-yl]-N,1-dimethyl-1H-indole-7-carboxamide] | 0.00191 µM | 0.303 µM |  | 
CN(C)C(=O)CN1CCN(c2ccc([C@@H]3CN(C4CCc5cccc(F)c54)C[C@H]3N(C)C)cn2)CC1 (mixture of isomers) [Example 147, rac-2-(4-{5-[(3R,4S)-4-(dimethylamino)-1-(7-fluoro-2,3-dihydro-1H-inden-1-yl)pyrrolidin-3-yl]pyridin-2-yl}piperazin-1-yl)-N,N-dimethylacetamide] | 0.00384 µM | 0.535 µM |  | 
CN(C)[C@@H]1CN(C2CCc3cccc(F)c32)C[C@H]1c1ccc(-c2cnn(CC(=O)N3CC(O)C3)c2)nc1 (mixture of isomers) [Example 150, rac-2-(4-{5-[(3R,4S)-4-(dimethylamino)-1-(7-fluoro-2,3-dihydro-1H-inden-1-yl)pyrrolidin-3-yl]pyridin-2-yl}-1H-pyrazol-1-yl)-1-(3-hydroxyazetidin-1-yl)ethan-1-one] | 0.0024 µM | 0.95 µM |  | 
CN(C)[C@H]1CN(C2CCc3cccc(F)c32)C[C@@H]1c1cn(C)c2ccccc12 (stereo partly drawn) [Example 76, (3R,4S)-1-(7-fluoro-2,3-dihydro-1H-inden-1-yl)-N,N-dimethyl-4-(1-methyl-1H-indol-3-yl)pyrrolidin-3-amine] |  | 1.9 µM | 1.34 µM | 
CN(C)[C@H]1CN(C2CCc3cccc(F)c32)C[C@@H]1c1cn(C)c2c(C(=O)NC3CC(O)C3)cccc12 (mixture of isomers) [Example 108, rac-3-[(3S,4R)-4-(dimethylamino)-1-(7-fluoro-2,3-dihydro-1H-inden-1-yl)pyrrolidin-3-yl]-N-(3-hydroxycyclobutyl)-1-methyl-1H-indole-7-carboxamide] | 0.0015 µM | 0.152 µM |  | 
CC(=O)N1CCN(c2ccc([C@H]3CN([C@@H]4CCc5cccc(F)c54)C[C@@H]3N(C)C)cc2)CC1 [Example 46, 1-[4-(4-{(3S,4R)-4-(dimethylamino)-1-[(1R)-7-fluoro-2,3-dihydro-1H-inden-1-yl]pyrrolidin-3-yl}phenyl)piperazin-1-yl]ethan-1-one] | 0.00336 µM |  |  | 1.01 µM
CN(C)[C@@H]1CN(C2CCc3cccc(F)c32)C[C@H]1c1ccc(-c2cnn(CC(=O)N3CC(F)C3)c2)nc1 (mixture of isomers) [Example 153, rac-2-(4-{5-[(3R,4S)-4-(dimethylamino)-1-(7-fluoro-2,3-dihydro-1H-inden-1-yl)pyrrolidin-3-yl]pyridin-2-yl}-1H-pyrazol-1-yl)-1-(3-fluoroazetidin-1-yl)ethan-1-one] | 0.00201 µM | 0.419 µM |  | 
